Laboratory results: patent US7618984B2, “Sulfonamide compound” (Asahi Kasei Pharma Corporation, priority 2005, dated 2009)
Where a name gives a salt, the structure may show the parent alone.

Tests used:
[1] = test system: rabbit normal intraocular pressure; assay: Intraocular pressure reducing action (Test Example 2); format: in vivo, Japanese white rabbit; settings: Oryctolagus cuniculus, topical; 3 mM aqueous solution, 50 μl to the left eye; measured after 2, 4 and 6 hours; read-out: intraocular pressure reducing degree (max ΔIOP / intraocular pressure value immediately before administration × 100)
Protocol: A Japanese white rabbit having a body weight of about 2 kg was placed in a positioner and naturalized for one week before the experiment. An opthalmologic local anesthesant (Benoxil) was administered to both eyes, and then intraocular pressure was measured by using a tonometer (Classic 30, Solan). A 3 mM aqueous solution of a test compound was administered in a volume of 50 μl to the left eye, and the right eye was not treated (control eye). The intraocular pressure values were measured for the left and right eyes immediately before, and 2, 4 and 6 hours after the administration of the aqueous solution of the test compound, and the difference of the measured values for the left and right eyes was considered an intraocular pressure reduction value of the test medicament at each measurement time. The largest difference of the values for the left and right eyes among the measured values at the measurement times (after 2, 4 and 6 hours) was considered the maximum intraocular pressure reduction value (max ΔIOP) of each test medicament. The intraocular pressure reducing degree representing the intraocular pressure reducing action of each test medicament was calculated according to the following formula. Since rabbits show significant daily variation of intraocular pressure, daily variation is added when change of intraocular pressure is measured over time, and the intraocular pressure reducing action may be overestimated. Therefore, we used this calculation method of intraocular pressure reduction value in order to minimize the influence of the variation. Intraocular pressure reducing degree (%)=(max ΔIOP/Intraocular pressure value immediately before administration)×100

neutrophils = assay: Neutrophil migration inhibitory action, Boyden Chamber, FMLP (Test Example 3); format: cell-based; settings: 0.5 h, human neutrophils, FMLP 1 μM, 37° C., 30 minutes, read-out: IC50, compound concentration providing a migration inhibition ratio of 50%
Protocol: Neutrophils were isolated from 50 to 100 ml of peripheral blood collected from healthy human donors by the method described in Test Example 1 to obtain a cell suspension (8×10^6/ml). Subsequently, solutions of a test compound at various concentrations were introduced into wells of a 96-well plate in a volume of 125 μl per well, the cell suspension of an equivalent volume was added to it and the plate was preincubated at room temperature for 5 minutes. During the preincubation, FMLP (1 μM, Sigma) solution was added to the lower chamber to set Boyden Chamber, the preincubated cell suspension was added to the upper chamber in a volume of 200 μl per well, and the cells were allowed to migrate at 37° C. under 5% carbon dioxide for 30 minutes. The filter after the migration was collected, and the non-migrated cells adhered to the surface that faced the upper chamber were carefully wiped off. Then, the migrated cells on the back surface were stained with DifQuick dye solution (International Reagents), washed with water and dried, and then absorbance was measured at 595 nm. The inhibition ratio against migration (%) of a test compound was calculated by using the following equation: Migration inhibition ratio(%)=(1−Absorbance of the group with addition of test compound/Absorbance of the group without addition of test compound)×100
Further, the migration inhibitory ratio was calculated with changing the test compound concentration, and a compound concentration providing an inhibition ratio of 50% was obtained as IC50.

[2] = test system: phosphorylation of myosin regulatory light chain; assay: Inhibitory action on phosphorylation of myosin regulatory light chain (Test Example 1); format: cell-based; settings: Neutrophil, 5 min; human peripheral blood neutrophils, 25° C. for 5 minutes; read-out: IC50, compound concentration providing a phosphorylation inhibition ratio of 50% (myosin regulatory light chain)
Protocol: A volume of 50 to 100 ml of peripheral blood collected from healthy volunteers was centrifuged by using Mono-Poly separator solution (Dainippon Pharmaceutical) to prepare a neutrophil containing fraction. The neutrophils were washed with PBS(−) and resuspended in Hanks' Balanced Salt Solution (HBSS+, Gibco) to prepare a cell suspension (8×10^6/ml). The cell suspension was diluted to 5×10^6/ml, introduced into Eppendorf tubes in a volume of 0.4 ml each, then 0.1 ml each of solutions of a test compound at various concentrations were added to the suspension and allowed to react at 25° C. for 5 minutes. After the reaction, 0.1 ml of trichloroacetic acid solution was added to each reaction mixture, the reaction mixture was gently shaken and centrifuged at 12,000 rpm (4° C., 5 minutes), and the supernatant was removed. Subsequently, 3 μl of 1 M Tris solution was added to the residue, the mixture was further mixed with 50 μl of extraction buffer (8 M urea, 0.02% 2-mercaptoethanol, 0.002% bromophenol blue) and left stand at room temperature for 1 hour. Then, the reaction mixture was loaded on a spin column (0.45 μm, Millipore) to remove the insoluble solids and a sample buffer for SDS polyacrylamide gel electrophoresis (25 mM, Tris-HCl pH 6.8, 2.5% 2-mercaptoethanol, 2% sodium dodecylsulfate, 5% sucrose, 0.002% bromophenol blue as final concentrations) was added, and 10 μl of each sample was subjected to electrophoresis.
The gel after the electrophoresis was blotted on a nitrocellulose membrane (BioRad), blocked with 5% skim milk, and reacted successively with antibodies pLC1 (Sakurada K. et al, Am. J. Physiol., 274, C1563-C1572 (1998)), which specifically recognize the phosphorylated myosin regulatory light chain, and donkey anti-mouse IgG (Chemicon) conjugated with horseradish peroxidase. The band of the phosphorylated myosin regulatory light chain was detected on a film by using ECL Plus Kit (Amersham Pharmacia Biotech). This band was subjected to quantification using a densitometer. By using this value, the inhibitory ratio (%) for phosphorylation of the myosin regulatory light chain was calculated by using the following equation. Phosphorylation inhibition ratio(%)=1−(Band intensity of phosphorylated myosin regulatory light chain with addition of the test compound/Band intensity of phosphorylated myosin regulatory light chain without addition of the test compound)×100
Further, the phosphorylation inhibition ratio was calculated with changing the concentrations of the test compound, and a compound concentration providing an inhibition ratio of 50% was obtained as IC50.

[3] = test system: rabbit intraocular pressure; assay: Rabbit intraocular pressure reduction enhancing action, combination use (Test Example 6-1); format: in vivo, Japanese white rabbit; settings: 50 μL, difference of left and right eyes, 2, 4 and 6 hours
Protocol: However, the effect is not limited to the 19-1 compound, and the ophthalmic solution concentration of the 19-1 compound is not limited to those used in this test example. Moreover, as for the test compound used for combination use, similar effect can be obtained also with the compounds of the present invention represented with the example numbers mentioned in Test Example 2.
As a test compound, the 19-1 compound was dissolved in physiological saline, and the solution was neutralized by addition of sodium hydroxide (pH 7.0 to 8.0) to prepare a 0.01 weight % aqueous solution (19-1 compound aqueous solution). As the drugs for combination use, isopropyl unoprostone (trade name: Rescula, Santen Pharmaceutical) was used as a prostaglandin-related drug, and brinzolamide hydrochloride (trade name: Azopt, Alcon Japan) was used as […], as the marketed formulations as they were.
A Japanese white rabbit having a body weight of about 2 kg was placed in a positioner and naturalized for one week before the experiment. An opthalmologic local anesthesant (Benoxil) was administered to both eyes, and then intraocular pressure before instillation was measured by using a tonometer (Classic 30, Solan). A test aqueous solution or the drug for combination use was administered to the left eye, and the right eye was not treated (control eye). The test groups consisted of (1) control group, (2) group instilled only with the 19-1 compound aqueous solution (single drug group 1), (3) group instilled only with the drug for combination use (single drug group 2), and (4) group instilled with the drug for combination use and the 19-1 compound aqueous solution (combination use group), and six rabbits were used for each group. As for the rabbits of these groups, 50 μL of physiological saline was first instilled to the control group, single drug group 1, and single drug group 2, and the drug for combination use was first instilled in the same volume to the combination use group. […] The intraocular pressure thereafter was measured for each group 2, 4 and 6 hours after the second administration of the test compound, and the difference of the measured values for the left and right eyes at each measurement time was considered an intraocular pressure reduction value of each group. The largest difference of the intraocular pressure values for the left and right eyes among those of the measured values of the measurement times was considered the maximum intraocular pressure reduction value (max ΔIOP) of each drug group.

[4] = test system: rabbit intraocular pressure; assay: Rabbit intraocular pressure reduction enhancing action, combination with timolol maleate (Test Example 6-2); format: in vivo, Japanese white rabbit; settings: 0.01 weight % 19-1 compound aqueous solution and/or timolol maleate (Timoptol), 50 μL; difference relative to the control group, 1, 2 and 4 hours
Protocol: As a test compound, the 19-1 compound was dissolved in physiological saline, and the solution was neutralized by addition of sodium hydroxide (pH 7.0 to 8.0) to prepare a 0.01 weight % aqueous solution (19-1 compound aqueous solution). As a drug for combination use, timolol maleate (trade name: Timoptol, Santen Pharmaceutical) was used as an adrenergic receptor β blocker, as the marketed formulation as it was.
A Japanese white rabbit having a body weight of about 2 kg was placed in a positioner and naturalized for one week before the experiment. An opthalmologic local anesthesant (Benoxil) was administered to both eyes, and then intraocular pressure before instillation was measured by using a tonometer (Classic 30, Solan). […] The intraocular pressure thereafter was measured for each group 1, 2 and 4 hours after the second administration of the test compound, and the difference of the measured values at each measurement time for the each group and the control group was considered an intraocular pressure reduction value of each group. The largest difference of the intraocular pressure values relative to the control group among those of the measured values of the measurement times was considered the maximum intraocular pressure reduction value (max ΔIOP) of each drug group.

IC50 (neutrophils)	IC50 [2]	SMILES	inhibition in vivo at 3000 µM [1]	Max ΔIOP (maximum intraocular pressure reduction value), Table 2 ([3]; 0.01 weight % 19-1 compound aqueous solution and/or brinzolamide hydrochloride (Azopt))	Max ΔIOP (maximum intraocular pressure reduction value), Table 3 ([3]; 0.01 weight % 19-1 compound aqueous solution and/or isopropyl unoprostone (Rescula))	Max ΔIOP (maximum intraocular pressure reduction value), Table 4 [4]
10 to 40 µM	< 10 µM	Cc1cncc2cccc(S(=O)(=O)N3CCC[C@@H](N)C3)c12 [Example 22-2, (R)-3-Amino-1-(4-methyl-5-isoquinolinesulfonyl)piperidine]	10 to 20%	–	–	–
10 to 40 µM	< 10 µM	CCc1cncc2cccc(S(=O)(=O)N3CC[C@H](N)C3)c12 [Example 23-1, (S)-3-Amino-1-(4-ethyl-5-isoquinolinesulfonyl)pyrrolidine]	10 to 20%	–	–	–
< 10 µM	< 10 µM	Cc1cnc(O)c2cccc(S(=O)(=O)N3CC[C@H](N)C3)c12 [Example 25-1, (S)-3-Amino-1-(1-hydroxy-4-methyl-5-isoquinolinesulfonyl)pyrrolidine]	10 to 20%	–	–	–
10 to 40 µM	< 10 µM	Cc1cncc2cccc(S(=O)(=O)N3CC(N)C3)c12 [Example 26, 3-Amino-1-(4-methyl-5-isoquinolinesulfonyl)azetidine]	5 to 10%	–	–	–
10 to 40 µM	< 10 µM	CN[C@@H]1CCN(S(=O)(=O)c2cccc3cncc(C)c23)C1 [Example 27, (R)-3-(Methylamino)-1-(4-methyl-5-isoquinolinesulfonyl)pyrrolidine]	5 to 10%	–	–	–
10 to 40 µM	< 10 µM	CN[C@@H]1CCN(S(=O)(=O)c2cccc3cncc(Cl)c23)C1 [Example 32-2, (R)-1-(4-Chloro-5-isoquinolinesulfonyl)-3-(methylamino)pyrrolidine]	10 to 20%	–	–	–
< 10 µM	< 10 µM	CN[C@H]1CCN(S(=O)(=O)c2cccc3c(O)ncc(Cl)c23)C1 [Example 36-1, (S)-1-(1-Hydroxy-4-chloro-5-isoquinolinesulfonyl)-3-(methylamino)pyrrolidine]	10 to 20%	–	–	–
–	–	CCN[C@H]1CN(CCCOC)S(=O)(=O)c2sc(S(N)(=O)=O)cc21 [brinzolamide hydrochloride, reference compound]	–	2.3 mmHg	–	–
–	–	CCCCCCCC(=O)CC[C@@H]1[C@@H](C/C=C\CCCC(=O)OC(C)C)[C@@H](O)C[C@H]1O [isopropyl unoprostone, reference compound]	–	–	4.4 mmHg	–
–	–	CC(C)(C)NC[C@H](O)COc1nsnc1N1CCOCC1 [timolol maleate, reference compound]	–	–	–	1.9 mmHg
